Assay results from patent US6677307B2, “TGF-α polypeptides, functional fragments and methods of use therefor” (Kaleidos Pharma, Inc., priority 1999, dated 2004).

Key:
[1] = system: kidney tissue (primarily glomeruli); assay: Cis-platinum kidney damage, H&E kidney histology; format: in vivo; details: mice; CP 10 mg/kg ip; 10 μg/kg 6 hours prior to CP and 24 and 48 hours after CP
Procedure: In addition, administration of a TGF-α polypeptide, fragments, and mimetic to regenerate damaged tissue, for example, in kidney, an organ sensitive to such damage, is also disclosed herein. In an in vivo experiment, mice were administered 10 mg/kg of Cis-platinum as a single ip injection and treated mice administered 10 μg/kg a human TGF-α57 (R&D Systems, Minneapolis, Minn.). TGF-α57 was administered just before CP and in two additional doses after, by ip administration for a general systemic effect. Several organs or tissues were collected from the animals sacrificed 4 days after CP dose (or saline for no TGFα57) and tissues were examined histologically.
The cuboidal epithelium of the proximal convuluted tubule was also damaged.

kidney = assay: glycerol acute kidney toxicity, blood BUN and creatinine; format: in vivo, CD-1 mice; details: 50% glycerol 10 ml/kg im; 1 μg ip; two treatments
Procedure: In another set of in vivo experiments, glycerol (50% (v/v) aqueous solution, Sigma) was used as the cytotoxic agent for an acute cytotoxic agent. Six CD-1 mice were weighed and injected into both hind limbs im with 10 ml/kg of 50% (v/v) glycerol, one half into each hind limb im. Three of the mice were controls and injected with 0.1 ml of 0.9% saline and the other three injected ip with 0.1 ml of 10 μg/ml stock of TGF-α (57 aa polypeptide) as a 1 μg dose. The mice were reinjected with the same does of saline or TGFα the next day and another equal dose of 50% glycerol. After two treatments, the mice were sacrificed and blood BUN and creatinine was measured and the kidneys examined. The average creatinine values were 1.75±0.613 for controls and 1.51±0.940 for treated mice. The average BUN values were […] for controls and 165.3±75.6 for treated mice.

mouse spleen = assay: in vivo model of general hematopoiesis with Cis Platinum (spleen weights, platelets, spleen histology)
Procedure: Hematopoietic and myeloid cells are red blood cell precursors, platelet precursors (megakaryocytes), and immune (white) blood cell precursors of various forms of T cells, B cells and macrophages. […] It should be noted that references to TGF-α as a human 50 amino acid polypeptide further include reference to human TGFα57 as an alternative variant.
(§1) The experiment procedure dosed those animals to be treated with TGFα 57 4 hours prior to challenge with CP. A single dose of CP was administered. Additional doses (as indicated) of TGFα 57 were made at 24 hours, 48 hours, 72 hours and 96 hours after the CP dose. All doses were made by IP injection. Controls were dosed with saline instead of either or both of CP and TGF-α57.
(§2) The animals were sacrificed about 4 hours after the last TGF-α57 (or saline) dose. Key organs were removed and spleens were immediately weighed after a clean incision. All the relevant organs were placed in formalin, transported for histopathological analysis, mounted, sectioned, stained and observed. The results of this histological analysis of the spleens for hematopoietic effect and the GI tract (below) provided surprising and unexpected data of the effect of TGF-α57 activity.
There was erythrocytes in the perifollicular zone surrounding both the T cell and B cell compartments of white pulp. […] The T cells stained for the T-cell receptor but were negative for CD4 and CD8 markers. Accordingly, the T-cells are double null T-cell progenitors induced by TGF-α administration.

[2] = system: human CD34 positive and CD38 negative cells; assay: liquid primary culture of human bone-marrow enriched CD34 cells; format: cell-based
Procedure: An additional experiment investigated TGF-α activity (using TGF-α57) on human bone-marrow enriched CD34 cells. FACS-sorted human CD34 positive and CD38 negative cells were cultured in liquid primary cultures in Iscove's modified Dulbecco's media with supplements. […] Stem Cell Factor (SCF) was used as a positive control (500 ng/ml) and provided a three-fold increase in CD34 positive cells. When a combination of SCF (500 ng/ml) and TGFα (10 ng/ml) was added, a synergistic 12-fold increase in CD34 positive cells was observed.

mouse intestines = assay: histological examination of intestines of CP-treated mice; format: in vivo
Procedure: as §1, §2
TGFα or a peptide from formula I, formula II, formula III, formula IV, formula V, or formula VI having TGFα activity or combinations thereof are also useful for treating mucositis associated intestinal bleeding, dyspepsia caused by with cytotoxic therapy and for improving the barrier function of the GI tract compromised by cytotoxic therapy. The in vivo experiment with seven groups of mice described above for hematopoietic effects noted in spleens also examined the GI tract of these treated mice. […] A single row of intestinal crypt is found at the base of the mucosa. These crypts that lie between adjacent villi are surrounded by the same lamina propria that form the villous cores. Both columnar absorptive cells and goblet cells cover the villous surfaces. The goblet cells contain apical clear vacuoles. […] Specifically, the villus was long and slender. Both absorptive cells and goblet cells were visible at the surface of the villi, and there was an abundant amount of goblet cells on the surface.
A 160×magnification of the intestines of a CP-treated mouse, a normal mouse and a CP treated and TGFα57 treated mouse at the same doses as described above. […] The crypts were irregularly shaped and in had various heights. […] The crypts also appeared normal.
Red cells were visible at the damaged surface indicating intestinal bleeding. […] Globlet cells appeared interspersed, necrotic and fewer in number than normal. […] Specifically, the epithelial cells appeared normal with extended brush borders. The nuclei were very densely stained and elongated.
The histological data is summarized in FIG. 4 that measured average crypt height of the three groups of mice.
An alcian blue staining method permitted differentiation of absorptive cells and goblet cells. Goblet cell mucus is stained a blue color while the absorptive cells remain less stained. […] In the normal intestine each villus extended from the luminal surface to the basal muscularis mucosal surface. Goblet cells were scattered and predominated in the base of the villus whereas columnar absorptive cells lined the luminal surface. […] The injured absorptive and goblet cells were degenerating at the tip of the villi and abundant secretory mucus material was stained in the luminal surface. In the CP/TGF-α mouse, there were an increased number of goblet cells scattered throughout the villi. The intestinal villi appeared normal with elongation. […] The luminal plasma membranes of the villi were well protected by TGF-α treatment. The number of goblet cells was counted on the average unit length of intestine.

TGF-α57: 57 amino acid polypeptide of formula VI: Ser-Leu-Ser-Leu-Pro-Ala-Met-Human TGFα
glomeruli damage (H&E kidney histology) [1]: essentially protected the glomeruli from damage | average BUN (kidney): 165.3±75.6 | average creatinine (kidney): 1.51±0.940 | spleen weights (mouse spleen; CP 5 mg/kg or 10 mg/kg, 10 μg/kg or 50 μg/kg IP, FIG. 3): return to normal spleen weights | spleen histology (H&E) (mouse spleen; CP 10 mg/kg and 50 μg/kg): increased number of T cells and erythrocytes in the perifollicular zone | platelet counts (mouse spleen; with CP, as opposed to CP alone): higher | increase in CD34 positive progenitor cells ([2]; added alone, 10 ng/ml): 35% | proliferation of dendritic precursor cells ([2]; treated cultures): stimulation of the proliferation of dendritic precursor cells | intestinal structure (cross section histology) (mouse intestines; CP 10 mg/kg and 50 μg/kg): intestinal structure was very similar to the normal intestinal structure | number of goblet cells on the average unit length of intestine (alcian blue) (mouse intestines; CP 10 mg/kg and 50 μg/kg): increased the number from CP treatment to a higher level than normal intestine | villa surface, higher magnification (mouse intestines; CP 10 mg/kg and 50 μg/kg): protection of the villa surface | villi and crypts, 160× magnification (mouse intestines; CP 10 mg/kg and 50 μg/kg): normal appearing villi | average crypt height (mouse intestines; CP treatment, 50 μg/kg, FIG. 4): more-than-restore crypt height loss
